Measurements reported in the NIST ThermoML archive (doi:10.1021/je200477s).
Numbers after ± are expanded uncertainties.

Assay: wn = mass fraction of the nth substance listed
Conditions: 101 kPa, Liquid, Pycnometric method

## O [water] + CCCCn1cc[n+](C)c1.COS(=O)(=O)[O-]
293.15 K, w2 = 0
  mass density: 998.3 ± 0.3 kg/m3
295.15 K, w2 = 0
  mass density: 997.9 ± 0.3 kg/m3
297.15 K, w2 = 0
  mass density: 997.4 ± 0.3 kg/m3
299.15 K, w2 = 0
  mass density: 996.9 ± 0.3 kg/m3
301.15 K, w2 = 0
  mass density: 996.3 ± 0.3 kg/m3

## CCCCn1cc[n+](C)c1.COS(=O)(=O)[O-] [1-butyl-3-methylimidazolium methyl sulfate] + O
293.15 K, w1 = 0.1501
  mass density: 1025.8 ± 0.4 kg/m3
293.15 K, w1 = 0.2002
  mass density: 1035.9 ± 0.4 kg/m3
293.15 K, w1 = 0.2991
  mass density: 1056.1 ± 0.5 kg/m3
293.15 K, w1 = 0.4993
  mass density: 1100.2 ± 0.6 kg/m3
293.15 K, w1 = 0.6519
  mass density: 1134.9 ± 0.8 kg/m3
293.15 K, w1 = 0.8012
  mass density: 1169.4 ± 1.1 kg/m3
293.15 K, w1 = 0.8701
  mass density: 1184.8 ± 1.2 kg/m3
293.15 K, w1 = 0.9325
  mass density: 1198.2 ± 1.3 kg/m3
293.15 K, w1 = 1
  mass density: 1211.7 ± 1.5 kg/m3
295.15 K, w1 = 0.1501
  mass density: 1025.1 ± 0.3 kg/m3
295.15 K, w1 = 0.2002
  mass density: 1035.2 ± 0.4 kg/m3
295.15 K, w1 = 0.2991
  mass density: 1055.2 ± 0.4 kg/m3
295.15 K, w1 = 0.4993
  mass density: 1099 ± 0.6 kg/m3
295.15 K, w1 = 0.6519
  mass density: 1133.5 ± 0.8 kg/m3
295.15 K, w1 = 0.8012
  mass density: 1168 ± 1.1 kg/m3
295.15 K, w1 = 0.8701
  mass density: 1183.4 ± 1.2 kg/m3
295.15 K, w1 = 0.9325
  mass density: 1196.8 ± 1.4 kg/m3
295.15 K, w1 = 1
  mass density: 1210.4 ± 1.5 kg/m3
297.15 K, w1 = 0.1501
  mass density: 1024.4 ± 0.4 kg/m3
297.15 K, w1 = 0.2002
  mass density: 1034.4 ± 0.4 kg/m3
297.15 K, w1 = 0.2991
  mass density: 1054.3 ± 0.4 kg/m3
297.15 K, w1 = 0.4993
  mass density: 1097.7 ± 0.6 kg/m3
297.15 K, w1 = 0.6519
  mass density: 1132.2 ± 0.8 kg/m3
297.15 K, w1 = 0.8012
  mass density: 1166.6 ± 1.1 kg/m3
297.15 K, w1 = 0.8701
  mass density: 1182.1 ± 1.2 kg/m3
297.15 K, w1 = 0.9325
  mass density: 1195.5 ± 1.4 kg/m3
297.15 K, w1 = 1
  mass density: 1209.1 ± 1.5 kg/m3
299.15 K, w1 = 0.1501
  mass density: 1023.7 ± 0.4 kg/m3
299.15 K, w1 = 0.2002
  mass density: 1033.6 ± 0.4 kg/m3
299.15 K, w1 = 0.2991
  mass density: 1053.3 ± 0.4 kg/m3
299.15 K, w1 = 0.4993
  mass density: 1096.5 ± 0.6 kg/m3
299.15 K, w1 = 0.6519
  mass density: 1130.7 ± 0.8 kg/m3
299.15 K, w1 = 0.8012
  mass density: 1165.2 ± 1.1 kg/m3
299.15 K, w1 = 0.8701
  mass density: 1180.7 ± 1.2 kg/m3
299.15 K, w1 = 0.9325
  mass density: 1194.1 ± 1.4 kg/m3
299.15 K, w1 = 1
  mass density: 1207.7 ± 1.5 kg/m3
301.15 K, w1 = 0.1501
  mass density: 1022.9 ± 0.4 kg/m3
301.15 K, w1 = 0.2002
  mass density: 1032.8 ± 0.4 kg/m3
301.15 K, w1 = 0.2991
  mass density: 1052.3 ± 0.4 kg/m3
301.15 K, w1 = 0.4993
  mass density: 1095.2 ± 0.6 kg/m3
301.15 K, w1 = 0.6519
  mass density: 1129.4 ± 0.8 kg/m3
301.15 K, w1 = 0.8012
  mass density: 1163.8 ± 1.1 kg/m3
301.15 K, w1 = 0.8701
  mass density: 1179.3 ± 1.2 kg/m3
301.15 K, w1 = 0.9325
  mass density: 1192.8 ± 1.4 kg/m3
301.15 K, w1 = 1
  mass density: 1206.4 ± 1.5 kg/m3
303.15 K, w1 = 0.1501
  mass density: 1022.2 ± 0.3 kg/m3
303.15 K, w1 = 0.2002
  mass density: 1031.9 ± 0.4 kg/m3
303.15 K, w1 = 0.2991
  mass density: 1051.3 ± 0.4 kg/m3
303.15 K, w1 = 0.4993
  mass density: 1093.9 ± 0.6 kg/m3
303.15 K, w1 = 0.6519
  mass density: 1128 ± 0.8 kg/m3
303.15 K, w1 = 0.8012
  mass density: 1162.4 ± 1.1 kg/m3
303.15 K, w1 = 0.8701
  mass density: 1177.9 ± 1.2 kg/m3
303.15 K, w1 = 0.9325
  mass density: 1191.4 ± 1.4 kg/m3
303.15 K, w1 = 1
  mass density: 1205.1 ± 1.5 kg/m3
